Measured values reported in patent US20240251792A1, “WEED CONTROL METHOD” (SYNGENTA CROP PROTECTION AG, priority 2021, published 2024).
Like-named read-outs stand apart in the source and are kept apart here.

Tests used:
Assay type in all cases: in vivo
[1] = tested on: ZEAMX; test: Pre-emergence biological efficacy (Table 3); conditions: 312 h, after 13 days, read-out: evaluation (100=total damage to plant; 0=no damage to plant)
How it was run: (§1)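 Pre-emergence spray one day after sowing; the compound, made up as a 50 g/l AMA-based formulation, was diluted with 0.2% Genapol X080. Visual damage rating 13 days later on a 0-100 scale, with glasshouse conditions of 24/18° C day/night and 15 h light.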

[2] = tested on: SETFA; test: Pre-emergence biological efficacy (Table 3); conditions: Setaria faberi, 312 h, after 13 days, read-out: evaluation (100=total damage to plant; 0=no damage to plant)
How it was run: as §1

[3] = tested on: AMAPA; test: Pre-emergence biological efficacy (Table 3); conditions: 312 h, after 13 days, read-out: evaluation (100=total damage to plant; 0=no damage to plant)
How it was run: as §1

[4] = tested on: AMARE; test: Pre-emergence biological efficacy (Table 3); conditions: Amaranthus retroflexus, 312 h, after 13 days, read-out: evaluation (100=total damage to plant; 0=no damage to plant)
How it was run: as §1

[5] = tested on: IPOHE; test: Pre-emergence biological efficacy (Table 3); conditions: Ipomoea hederacea, 312 h, after 13 days, read-out: evaluation (100=total damage to plant; 0=no damage to plant)
How it was run: as §1

[6] = tested on: ECHCG; test: Pre-emergence biological efficacy (Table 3); conditions: Echinochloa crus-galli, 312 h, after 13 days, read-out: evaluation (100=total damage to plant; 0=no damage to plant)
How it was run: as §1

[7] = tested on: weeds and/or crops; test: Post-emergence biological efficacy (Table 4); conditions: evaluated after 13 days; for pest or weed control at 1000 g/ha / pest or weed control at 250 g/ha: 312 h; for pest or weed control at 1000 g/ha / damage to plant LOLPE (100=total damage; 0=no damage): 1000 g/ha
How it was run: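 Scores are visual damage (0 = none, 100 = total), read 13 days after treatment at 24/18 °C with 15 h light. Plants had been sown in standard soil and grown 14 days before a spray of compound in F50/acetone, diluted with 0.2% Genapol X080.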

[8] = tested on: LOLPE; test: Pre-emergence biological efficacy (Table 3); conditions: 1000 g/ha, after 13 days
How it was run: as §1

[9] = AMAPA, read-out: damage to plant AMAPA (100=total damage; 0=no damage)
[10] = ZEAMX, read-out: damage to plant ZEAMX (100=total damage; 0=no damage)
[11] = Amaranthus retroflexus, AMARE, read-out: damage to plant AMARE (100=total damage; 0=no damage)
[12] = Echinochloa crus-galli, ECHCG, read-out: damage to plant ECHCG (100=total damage; 0=no damage)
[13] = Ipomoea hederacea, IPOHE, read-out: damage to plant IPOHE (100=total damage; 0=no damage)
[14] = Setaria faberi, SETFA, read-out: damage to plant SETFA (100=total damage; 0=no damage)

`Cc1cccc(C(F)(F)C(=O)O)c1C#N` [Compound 1-462, 2-(2-Cyano-3-methyl-phenyl)-2,2-difluoro-acetic acid] showed a plant injury at 1000 g/ha [1] of 0%, a pest or weed control at 1000 g/ha [2] of 0% and a pest or weed control at 1000 g/ha [3] of 30%. It also gave a pest or weed control at 1000 g/ha [4] of 50%, a pest or weed control at 1000 g/ha [5] of 40% and a pest or weed control at 1000 g/ha [6] of 0%. For the same compound, the pest or weed control at 1000 g/ha [7, 9] was 80%, the pest or weed control at 1000 g/ha [7, 10] was 10% and the pest or weed control at 1000 g/ha [7, 11] was 80%. The pest or weed control at 1000 g/ha [7, 12] was 0%, the pest or weed control at 1000 g/ha [7, 13] was 70% and the pest or weed control at 1000 g/ha [7, 14] was 20%.

Work on `COc1c(C)cccc1C(F)(F)C(=O)O` [Compound 1-463, 2,2-Difluoro-2-(2-methoxy-3-methyl-phenyl)acetic acid] yielded a plant injury at 1000 g/ha [1] of 0%, a pest or weed control at 1000 g/ha [2] of 0% and a pest or weed control at 1000 g/ha [3] of 60%. The pest or weed control at 1000 g/ha [4] was 50%, the pest or weed control at 1000 g/ha [5] was 50% and the pest or weed control at 1000 g/ha [6] was 0%. The pest or weed control at 1000 g/ha [7, 9] was 70%, the pest or weed control at 1000 g/ha [7, 10] was 10% and the pest or weed control at 1000 g/ha [7, 11] was 80%. It also gave a pest or weed control at 1000 g/ha [7, 12] of 10%, a pest or weed control at 1000 g/ha [7, 13] of 70% and a pest or weed control at 1000 g/ha [7, 14] of 30%.

Compound `COc1c(C(F)(F)F)cccc1C(F)(F)C(=O)O` [Compound 1-464, 2,2-Difluoro-2-[2-methoxy-3-(trifluoromethyl)phenyl]acetic acid] has a plant injury at 250 g/ha ([1]; 250 g/ha) of 20%, a pest or weed control at 250 g/ha ([2]; 250 g/ha) of 30% and a pest or weed control at 250 g/ha ([3]; 250 g/ha) of 60%. It also gave a pest or weed control at 250 g/ha ([4]; 250 g/ha) of 40%, a pest or weed control at 250 g/ha ([5]; 250 g/ha) of 50% and a pest or weed control at 250 g/ha ([6]; 250 g/ha) of 10%. For the same compound, the pest or weed control at 250 g/ha [7, 9] was 80%, the pest or weed control at 250 g/ha [7, 10] was 10% and the pest or weed control at 250 g/ha [7, 11] was 80%. The pest or weed control at 250 g/ha [7, 12] was 70%, the pest or weed control at 250 g/ha [7, 13] was 60% and the pest or weed control at 250 g/ha [7, 14] was 70%.

For `O=C(O)C(F)(F)c1ccccc1OC(F)(F)F` [Compound 1-465, 2,2-Difluoro-2-[2-(trifluoromethoxy)phenyl]acetic acid], the plant injury at 1000 g/ha [1] was 20%, the pest or weed control at 1000 g/ha [2] was 20% and the pest or weed control at 1000 g/ha [3] was 70%. It also gave a pest or weed control at 1000 g/ha [4] of 70%, a pest or weed control at 1000 g/ha [5] of 20% and a pest or weed control at 1000 g/ha [6] of 20%. The pest or weed control at 1000 g/ha [7, 9] was 80%, the pest or weed control at 1000 g/ha [7, 10] was 20% and the pest or weed control at 1000 g/ha [7, 11] was 80%. It also gave a pest or weed control at 1000 g/ha [7, 12] of 60%, a pest or weed control at 1000 g/ha [7, 13] of 70% and a pest or weed control at 1000 g/ha [7, 14] of 30%.

With `COC(=O)C(F)(F)c1c(Cl)ccc(Cl)c1OC` [Compound 2-326, methyl 2-(3,6-dichloro-2-methoxy-phenyl)-2,2-difluoro-acetate] the “evaluation (100=total damage to plant; 0=no damage to plant)” value [8] was 10, the pest or weed control at 1000 g/ha [2] was 10% and the pest or weed control at 1000 g/ha [4] was 40%. The pest or weed control at 1000 g/ha [5] was 40%, the pest or weed control at 1000 g/ha [6] was 20% and the pest or weed control at 1000 g/ha [7, 11] was 70%. For the same compound, the pest or weed control at 1000 g/ha [7, 12] was 0%, the pest or weed control at 1000 g/ha [7, 13] was 40% and the “damage to plant LOLPE (100=total damage; 0=no damage)” value [7] was 0. For the same compound, the pest or weed control at 1000 g/ha [7, 14] was 0%.

`COC(=O)C(F)(F)c1c(Cl)ccc2cc(Cl)cnc12` [Compound 2-418, Methyl 2-(3,7-dichloro-8-quinolyl)-2,2-difluoro-acetate] was tested, and the “evaluation (100=total damage to plant; 0=no damage to plant)” value [8] was 0, the pest or weed control at 1000 g/ha [2] was 20% and the pest or weed control at 1000 g/ha [4] was 60%. For the same compound, the pest or weed control at 1000 g/ha [5] was 50%, the pest or weed control at 1000 g/ha [6] was 10% and the pest or weed control at 1000 g/ha [7, 11] was 70%. The pest or weed control at 1000 g/ha [7, 12] was 0%, the pest or weed control at 1000 g/ha [7, 13] was 80% and the “damage to plant LOLPE (100=total damage; 0=no damage)” value [7] was 0. The pest or weed control at 1000 g/ha [7, 14] was 0%.
